Laboratory results taken from PMC12251161, “Crucian Carp-Derived ACE-Inhibitory Peptides with In Vivo Antihypertensive Activity: Insights into Bioactivity, Mechanism, and Safety” (Molecules, 2025).
Where a SMILES comes first, the peptide text is derived from it. [ ]: non-standard residue; d: D form. Hyp = O=C(O)[C@@H]1C[C@@H](O)CN1

Columns and labels:
[1] = system: endothelial nitric oxide synthase (eNOS); assay: Endothelial nitric oxide synthase level in SHRs (ELISA); type: in vivo, spontaneously hypertensive rats (SHRs); settings: oral, vs model group
Excerpt: (§1) Formic acid (≥99%, LC-MS grade), 4-(2-hydroxyethyl) piperazine-1-ethanesulfonic acid (HEPES, ≥99%, ACS grade), ACE (from rabbit lung, EC 3.4.15.1), acetonitrile (ACN, ≥99%, LC-MS grade), and N-[3-(2-Furyl) acryloyl]-Phe-Gly-Gly (FAPGG, ≥99%, ACS grade) were obtained from Sigma-Aldrich Co. (St. Louis, MO, USA). An enzyme-linked immunosorbent assay (ELISA) kit for AngII (catalog no. D731188-0048) was purchased from Sangon Biotech (Shanghai, China). ELISA kits for endothelial nitric oxide synthase (eNOS, catalog no. JL21190-48T) and BK (catalog no. JL21045-48T) were obtained from JONLN Biotechnology Co., Ltd. (Shanghai, China). Nitric Oxide (NO) assay kit (catalog no. A013-2-1) was purchased from Nanjing Jiancheng Bioengineering Institute (Nanjing, Jiangsu, China). All other chemicals were of analytical grade. […]
(§2) Systolic blood pressure (SBP) was measured using a non-invasive blood pressure monitoring system (BP-2000, Softron Co., Tokyo, Japan) at baseline (0 h) and at 2, 4, 6, 8, and 12 h after administration to evaluate the antihypertensive effects of the test peptides, following the method described by Kurita. The levels of AngII, eNOS, and BK were measured using commercial ELISA kits, while NO levels were determined using the Microwell plate method with a specialized assay kit.

angiotensin II = assay: Angiotensin II level in SHRs (ELISA); type: in vivo, spontaneously hypertensive rats (SHRs); settings: captopril 12 mg/kg oral, n = 6
Excerpt: as §1, §2

nitric oxide (NO) = assay: Nitric oxide level in SHRs (assay kit); type: in vivo, spontaneously hypertensive rats (SHRs); settings: oral, vs model group
Excerpt: as §1, §2

BALB/c mice [2] = assay: 90-day oral safety: mortality, clinical signs, body weight; type: in vivo; settings: 50 mg/kg/day oral, 90 days, male and female
Description: (§3) A total of 40 healthy 7-week-old BALB/c mice (20 males and 20 non-pregnant females), with body weights within ±15% of the cohort mean, were obtained from Yangzhou University. All animals underwent a 7-day acclimation period under specific pathogen-free conditions prior to the experiment. Mice were housed under standard laboratory conditions: ambient temperature of 20–26 °C, relative humidity of 40–70%, and a 12 h light/dark cycle. General appearance, behavior, food intake, and body weight were monitored daily throughout the study. To evaluate the potential subchronic toxicity of the synthetic GA-Hyp-GAR peptide, a 90-day oral administration study was conducted. Mice were randomly divided into two groups (n = 10 males and 10 females per group): a normal group and a GA-Hyp-GAR-treated group receiving 50 mg/kg/day via daily intragastric gavage. The normal group received an equivalent volume of ultrapure water via the same route. After 90 consecutive days of treatment, all animals were anesthetized and euthanized 24 h after the final dose. […] Organ coefficients (organ weight/body weight × 100%) were calculated to assess potential physiological or pathological effects associated with long-term GA-Hyp-GAR exposure. […]

[3] = biological target: T1, ACE (from rabbit lung, EC 3.4.15.1) (Oryctolagus cuniculus, UniProt P12822); assay: ACE-inhibitory activity assay (FAPGG substrate, spectrophotometric); type: biochemical; settings: synthetic peptides; FAPGG 1 mmol/L, 80 mM HEPES, 0.3 M NaCl, pH 8.3, 37 °C; triplicate, sigmoidal dose–response fit; read-out: IC₅₀ ACE inhibition
T1 construct: ACE (from rabbit lung, EC 3.4.15.1); purchased Sigma-Aldrich Co. (St. Louis, MO, USA); host or cells: rabbit lung tissue
T1 sequence (P12822 34-1310): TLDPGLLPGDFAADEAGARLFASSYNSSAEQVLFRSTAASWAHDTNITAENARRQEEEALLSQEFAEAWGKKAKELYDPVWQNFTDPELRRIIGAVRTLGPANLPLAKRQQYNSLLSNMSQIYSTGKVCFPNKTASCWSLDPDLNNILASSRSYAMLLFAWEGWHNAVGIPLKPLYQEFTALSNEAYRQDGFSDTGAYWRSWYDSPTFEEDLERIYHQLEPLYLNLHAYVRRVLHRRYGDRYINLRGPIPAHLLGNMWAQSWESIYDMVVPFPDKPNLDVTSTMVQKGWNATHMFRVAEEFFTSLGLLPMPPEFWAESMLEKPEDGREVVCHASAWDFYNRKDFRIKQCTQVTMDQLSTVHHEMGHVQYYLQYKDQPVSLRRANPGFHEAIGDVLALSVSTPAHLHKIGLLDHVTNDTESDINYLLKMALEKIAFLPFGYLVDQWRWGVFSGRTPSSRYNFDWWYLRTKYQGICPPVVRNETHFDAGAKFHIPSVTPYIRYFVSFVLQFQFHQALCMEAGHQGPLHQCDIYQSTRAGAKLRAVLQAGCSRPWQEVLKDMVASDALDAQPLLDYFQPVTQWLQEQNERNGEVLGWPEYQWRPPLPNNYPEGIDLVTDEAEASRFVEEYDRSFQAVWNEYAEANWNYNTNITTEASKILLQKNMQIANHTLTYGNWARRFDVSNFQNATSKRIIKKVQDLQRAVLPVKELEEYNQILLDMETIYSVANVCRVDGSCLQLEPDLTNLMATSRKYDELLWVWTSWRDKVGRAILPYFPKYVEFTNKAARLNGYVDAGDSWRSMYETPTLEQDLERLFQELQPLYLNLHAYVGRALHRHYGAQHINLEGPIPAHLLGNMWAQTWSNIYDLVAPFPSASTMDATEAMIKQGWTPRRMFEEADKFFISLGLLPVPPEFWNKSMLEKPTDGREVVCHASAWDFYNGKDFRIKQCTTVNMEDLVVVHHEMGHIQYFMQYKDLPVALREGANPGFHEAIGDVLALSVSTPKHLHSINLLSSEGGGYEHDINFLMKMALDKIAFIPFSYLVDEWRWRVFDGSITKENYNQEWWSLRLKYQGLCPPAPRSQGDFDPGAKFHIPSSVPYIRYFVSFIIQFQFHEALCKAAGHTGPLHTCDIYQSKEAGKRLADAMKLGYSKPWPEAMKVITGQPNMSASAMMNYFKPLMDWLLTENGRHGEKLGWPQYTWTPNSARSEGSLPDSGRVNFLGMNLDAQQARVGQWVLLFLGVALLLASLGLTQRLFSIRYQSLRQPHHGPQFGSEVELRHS
Description: All other chemicals were of analytical grade.
All assays were conducted in triplicate.

BALB/c mice [4] = assay: 90-day oral safety: organ coefficients; type: in vivo; settings: 50 mg/kg/day oral, 90 days; liver, kidneys, spleen, lungs, heart
Description: as §3

BALB/c mice [5] = assay: 90-day oral safety: hematological parameters; type: in vivo; set-up: Red Cell Distribution Width—CV: unit not given here; settings: 50 mg/kg/day oral, 90 days
Description: (§4) A total of 40 healthy 7-week-old BALB/c mice (20 males and 20 non-pregnant females), with body weights within ±15% of the cohort mean, were obtained from Yangzhou University. All animals underwent a 7-day acclimation period under specific pathogen-free conditions prior to the experiment. Mice were housed under standard laboratory conditions: ambient temperature of 20–26 °C, relative humidity of 40–70%, and a 12 h light/dark cycle. General appearance, behavior, food intake, and body weight were monitored daily throughout the study. To evaluate the potential subchronic toxicity of the synthetic GA-Hyp-GAR peptide, a 90-day oral administration study was conducted. Mice were randomly divided into two groups (n = 10 males and 10 females per group): a normal group and a GA-Hyp-GAR-treated group receiving 50 mg/kg/day via daily intragastric gavage. The normal group received an equivalent volume of ultrapure water via the same route. After 90 consecutive days of treatment, all animals were anesthetized and euthanized 24 h after the final dose. Blood samples were collected via cardiac puncture for hematological and serum biochemical analyses, performed using a Hitachi 3500 fully automated biochemical analyzer (Hitachi High-Tech Science Corp., Tokyo, Japan). Major organs—including the heart, liver, spleen, lungs, and kidneys—were excised, blotted dry, and weighed. Organ coefficients (organ weight/body weight × 100%) were calculated to assess potential physiological or pathological effects associated with long-term GA-Hyp-GAR exposure. Tissues were fixed in 4% paraformaldehyde, embedded in paraffin, sectioned, and stained with hematoxylin and eosin for histopathological evaluation. All animal experiments were conducted in accordance with the ethical guidelines of the Animal Ethics Committee of Nanjing Agricultural University, which approved the study protocol (Protocol No. NJAU-20250120-35).

BALB/c mice [6] = assay: 90-day oral safety: histopathology (H&E); type: in vivo; settings: 50 mg/kg/day oral, 90 days, liver, kidneys, spleen, lungs, heart
Description: as §3

BALB/c mice [7] = assay: 90-day oral safety: serum biochemical parameters; type: in vivo; settings: 50 mg/kg/day oral, 90 days
Description: as §4

C[C@H](CS)C(=O)N1CCC[C@H]1C(=O)O [captopril]
eNOS levels in words [1]: significantly restored both eNOS and NO levels | AngII concentration (angiotensin II): 220.16 ± 31.67 pg/mL | NO levels in words (nitric oxide (NO)): significantly restored both eNOS and NO levels

C[C@H](NC(=O)CNC(=O)[C@@H]1C[C@@H](O)CN1C(=O)[C@H](C)NC(=O)CN)C(=O)N[C@@H](CCCNC(=N)N)C(=O)O [GA-Hyp-GAR, Gly-Ala-hydroxyproline-Gly-Ala-Arg] (H-GA[Hyp]GAR-OH)
body weight (BALB/c mice [2]): Body weight increased steadily in all groups over the study period | mortality and signs of toxicity (BALB/c mice [2]): no mortality or signs of toxicity were observed | IC50 [3]: 4 µM | organ coefficients (BALB/c mice [4]): organ coefficients did not differ significantly between the GA-Hyp-GAR-treated and normal groups (p > 0.05) | hematological parameters in words (BALB/c mice [5]; vs control): no statistically significant differences (p > 0.05) between the treated and control groups in key hematological parameters | Plateletcrit (BALB/c mice [5]; normal 0.16 ± 0.27, p >0.9999): 0.16 ± 0.26% | Mean Platelet Volume (BALB/c mice [5]; normal 2.05 ± 3.45, p 0.9798): 2.09 ± 3.52 fL | Platelet Distribution Width (BALB/c mice [5]; normal 2.91 ± 4.95, p 0.9364): 3.09 ± 5.00 fL | Platelet Large Cell Ratio (BALB/c mice [5]; normal 3.62 ± 6.29, p 0.9916): 3.65 ± 6.26% | White Blood Cells (BALB/c mice [5]; normal 4.28 ± 1.72, p 0.3610): 3.66 ± 1.19 ×10⁹/L | Red Blood Cells (BALB/c mice [5]; normal 10.71 ± 0.83, p 0.2451): 11.13 ± 0.73 ×10^12/L | Mean Corpuscular Hemoglobin (BALB/c mice [5]; normal 15.65 ± 0.32, p 0.7101): 15.70 ± 0.27 pg | Red Cell Distribution Width—CV (BALB/c mice [5]; normal 26.58 ± 1.94, p 0.4260): 25.95 ± 1.49 | Red Cell Distribution Width—SD (BALB/c mice [5]; normal 32.81 ± 11.68, p 0.8517): 31.99 ± 7.11 fL | Hemoglobin (BALB/c mice [5]; normal 167.60 ± 13.10, p 0.1978): 174.70 ± 10.50 g/L | Mean Corpuscular Hemoglobin Concentration (BALB/c mice [5]; normal 341.80 ± 15.10, p 0.7101): 355.90 ± 5.50 g/L | Platelet Count (BALB/c mice [5]; normal 675.50 ± 200.50, p 0.9198): 683.40 ± 140.00 ×10⁹/L | histopathology of major organs (BALB/c mice [6]): no observable pathological changes in any of the examined organs | serum biochemical markers of hepatic and renal function in words (BALB/c mice [7]; vs normal group): no significant differences (p > 0.05) between the treated and normal groups in markers of hepatic function | Triglycerides (BALB/c mice [7]; normal 1.94 ± 0.40, p 0.0526): 2.35 ± 0.48 mmol/L | Total Cholesterol (BALB/c mice [7]; normal 2.47 ± 0.23, p 0.1796): 2.32 ± 0.25 mmol/L | Aspartate Aminotransferase (BALB/c mice [7]; normal 2.48 ± 1.03, p 0.9294): 2.44 ± 0.96 µkat/L | Alkaline Phosphatase (BALB/c mice [7]; normal 3.32 ± 0.65, p 0.2065): 2.99 ± 0.46 µkat/L | Glucose (BALB/c mice [7]; normal 5.69 ± 3.38, p 0.1654): 7.79 ± 3.11 mmol/L | Blood Urea Nitrogen (BALB/c mice [7]; normal 7.81 ± 1.53, p 0.6237): 8.13 ± 1.33 mmol/L | Creatinine (BALB/c mice [7]; normal 14.70 ± 5.80, p 0.2390): 18.13 ± 6.76 µmol/L | Albumin (BALB/c mice [7]; normal 35.24 ± 1.32, p 0.5021): 35.60 ± 1.01 g/L | Total Protein (BALB/c mice [7]; normal 58.21 ± 3.77, p 0.9711): 58.16 ± 2.09 g/L | Alanine Aminotransferase (BALB/c mice [7]; normal 684.30 ± 288.39, p 0.8986): 701.81 ± 316.56 nkat/L

C[C@H](NC(=O)CNC(=O)[C@@H]1C[C@@H](O)CN1)C(=O)N[C@@H](CCCNC(=N)N)C(=O)O [Hyp-GAR, Hydroxyproline-Gly-Ala-Arg] (H-[Hyp]GAR-OH)
IC50 [3]: 12.2 µM
